Assay in data set [1]: not given
The source holds these as a separate data set.

The nature of data set [2]: Particle size distribution by dynamic light scattering (DLS). As to conditions: PBS. The data set is classed as physicochemical.
Data set [3] in a line: Turbidity measurement (OD600) of temperature-dependent phase separation, Tt. The data set is classed as physicochemical. As to conditions: even at 2.38 mM (5.00 mg/mL) in PBS; turbidity OD600. How it is done: The ability of the ELP–azobenzene conjugates to self-assemble was investigated by using turbidity measurements. In addition, we evaluated whether the photoisomerization of the azobenzene moieties induced differences in the aggregation ability of these analogues. Each peptide analogue was dissolved in PBS at different concentrations according to its water solubility. To quantitatively evaluate the aggregation ability, the transition temperature (T t) of the peptides was calculated from the change in optical density at a wavelength of 600 nm (OD600) associated with the increasing temperature (Table and Figure ).
The temperature-dependent self-assembly property of synthesized peptides was evaluated by using a JASCO V-660 spectral photometer (JASCO Co.). Each peptide was dissolved in PBS buffer or phosphate buffer solutions at various concentrations. Three types of phosphate buffers with the same ionic strength (μ = 0.100) but different pH (pH 7.4, 2.1, and 11.5) were prepared: phosphate buffer (pH 7.4, 29.4 mM Na2HPO4, 11.7 mM NaH2PO4), phosphate buffer (pH 2.1, 10.0 mM NaH2PO4, 10.5 mM phosphoric acid), and phosphate buffer (pH 11.5, 9.58 mM Na3PO4, 14.2 mM Na2HPO4). Turbidity was measured at 600 nm with increasing or decreasing temperature at a rate of 0.5 °C/min from 5 °C. The measurements were performed for the dark-adapted solution and after successive irradiation with UV light, visible light, and UV light. Each assay was repeated three times with different peptide solutions that were prepared separately. The phase separation property was described by the phase transition temperature (T t), which is the temperature at which the turbidity of the solution reaches half its maximum value.

Data set [4] can be described thus: Water solubility (observation). The data set is classed as physicochemical. The settings on record: qualitative observation.

Numbered stars: 1 amine (or outer) side, 2 acyl side, 3 side chain; on linkers, the order of the positions; unused ones are H or OH. Bridge positions count the residues as written; N and C are the ends. Square brackets hold non-standard residues; d marks the D form. Peptide text beside a SMILES is read from it. I, II: the chains in the order shown. X1 = O=C(c1ccc(N=Nc2ccc(C(=O)[*:2])cc2)cc1)[*:1]; X2 = O=C(c1ccc(N=Nc2ccc(N[*:1])cc2)cc1)[*:2]; X3 = c1cc(N[*:1])ccc1N=Nc1ccc(N[*:2])cc1

Turning to `CC(C)[C@H](NC(=O)CNC(=O)[C@@H]1CCCN1C(=O)[C@H](Cc1ccccc1)NC(=O)CNC(=O)[C@@H](NC(=O)CNC(=O)[C@@H]1CCCN1C(=O)[C@@H](N)Cc1ccccc1)C(C)C)C(=O)NCC(=O)N[C@@H](CC(=O)O)C(=O)Nc1ccc(N=Nc2ccc(NC(=O)[C@H](CC(=O)O)NC(=O)CNC(=O)[C@@H](NC(=O)CNC(=O)[C@@H]3CCCN3C(=O)[C@H](Cc3ccccc3)NC(=O)CNC(=O)[C@@H](NC(=O)CNC(=O)[C@@H]3CCCN3C(=O)[C@@H](N)Cc3ccccc3)C(C)C)C(C)C)cc2)cc1` (I: H-FPGVGFPGVGD / II: H-FPGVGFPGVGD; linker I:C-II:C via X3), the peak wavelength n–π* turned out to be 450 nm. For the same molecule, the peak wavelength π–π* in data set [1] worked out at 364 nm.

`CC(C)[C@H](NC(=O)CNC(=O)[C@@H]1CCCN1C(=O)[C@H](Cc1ccccc1)NC(=O)CNC(=O)[C@@H](NC(=O)CNC(=O)[C@@H]1CCCN1C(=O)[C@H](Cc1ccccc1)NC(=O)c1ccc(N=Nc2ccc(C(=O)N[C@@H](Cc3ccccc3)C(=O)N3CCC[C@H]3C(=O)NCC(=O)N[C@H](C(=O)NCC(=O)N[C@@H](Cc3ccccc3)C(=O)N3CCC[C@H]3C(=O)NCC(=O)N[C@H](C(=O)NCC(=O)O)C(C)C)C(C)C)cc2)cc1)C(C)C)C(=O)NCC(=O)O` [Azb-2(F2)] (I: FPGVGFPGVG-OH / II: FPGVGFPGVG-OH; linker I:N-II:N via X1): the “self-assembly in dark-adapted solution (DLS)” value in data set [2] is recorded as “did not exhibit self-assembly”. Besides, the “phase separation in PBS” value in data set [3] is given as “did not exhibit phase separation”.

Consider `CC(C)[C@H](NC(=O)CNC(=O)[C@@H]1CCCN1C(=O)[C@H](Cc1ccccc1)NC(=O)CNC(=O)[C@@H](NC(=O)CNC(=O)[C@@H]1CCCN1C(=O)[C@H](Cc1ccccc1)NC(=O)c1ccc(N=Nc2ccc(NC(=O)CNC(=O)[C@@H](NC(=O)CNC(=O)[C@@H]3CCCN3C(=O)[C@H](Cc3ccccc3)NC(=O)CNC(=O)[C@@H](NC(=O)CNC(=O)[C@@H]3CCCN3C(=O)[C@@H](N)Cc3ccccc3)C(C)C)C(C)C)cc2)cc1)C(C)C)C(=O)NCC(N)=O` [F2-Azb-F2-NH2] (H-FPGVGFPGVG[X2]FPGVGFPGVG-NH2), for which the peak wavelength n–π* was 450 nm. For the same molecule, in data set [4], the water solubility result is recorded as “low water solubility”. In data set [1], this molecule had a peak wavelength π–π* of 356 nm.

The molecule `CC(C)[C@H](NC(=O)CNC(=O)[C@@H]1CCCN1C(=O)[C@H](Cc1ccccc1)NC(=O)CNC(=O)[C@@H](NC(=O)CNC(=O)[C@@H]1CCCN1C(=O)[C@H](Cc1ccccc1)NC(=O)c1ccc(N=Nc2ccc(NC(=O)CNC(=O)[C@@H](NC(=O)CNC(=O)[C@@H]3CCCN3C(=O)[C@H](Cc3ccccc3)NC(=O)CNC(=O)[C@@H](NC(=O)CNC(=O)[C@@H]3CCCN3C(=O)[C@@H](N)Cc3ccccc3)C(C)C)C(C)C)cc2)cc1)C(C)C)C(=O)NCC(=O)O` [F2-Azb-F2] (H-FPGVGFPGVG[X2]FPGVGFPGVG-OH) returned a peak wavelength n–π* of 444 nm. Moreover, the water solubility entry in data set [4] is given as “low water solubility”. The molecule also returned a peak wavelength π–π* in data set [1] of 354 nm.

These data come from PMC12363518, “Azobenzene-Modified Temperature-Responsive Short Elastin-like Peptides for Photo-Controlled Phase Transition” (ACS Synthetic Biology, 2025).
